Patent US20070129313A1, “Sulfonylamino-peptidomimetics active on the somatostatin receptor subtypes 4 (sstr4) and 1 (sstr1)” (SIEGFRIED WURSTER, priority 2003, published 2007)

Assays:
[1] = target: T1, human somatostatin receptor subtype SSTR1 (Homo sapiens, UniProt P30872); assay: Competition binding with 125I-LTT-sst-28, CHO cell membranes, SSTR1; details: membranes of CHO cells stably transfected with human SSTR1, Ki from IC50 by Cheng-Prusoff
T1 construct: expressed in transfected cells; host or cells: Chinese hamster ovary (CHO) cells, membranes
T1 sequence (P30872 whole entry): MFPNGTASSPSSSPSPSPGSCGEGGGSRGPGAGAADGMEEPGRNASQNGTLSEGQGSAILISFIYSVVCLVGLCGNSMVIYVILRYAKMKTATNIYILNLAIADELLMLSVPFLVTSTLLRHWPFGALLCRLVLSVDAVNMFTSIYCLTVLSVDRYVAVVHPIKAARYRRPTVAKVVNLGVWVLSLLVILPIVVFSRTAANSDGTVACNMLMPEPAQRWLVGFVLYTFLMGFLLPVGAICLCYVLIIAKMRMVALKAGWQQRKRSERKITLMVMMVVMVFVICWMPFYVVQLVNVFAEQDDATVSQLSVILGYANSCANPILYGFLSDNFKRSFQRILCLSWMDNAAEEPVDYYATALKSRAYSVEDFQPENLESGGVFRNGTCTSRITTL
Experimental: (§1) The affinity of the compounds of the invention for the five human somatostatin receptor subtypes (SSTR1, SSTR2, SSTR3, SSTR4, and SSTR5) was determined in competition binding assays with (^125I-Tyr)-[Leu^8, DTrp^22]-somatostatin-28 (^125I-LTT-sst-28). The biological material for these experiments consisted of membranes from Chinese hamster ovary (CHO) cells stably transfected with one of the five human somatostatin receptor subtypes. Membranes (3-20 μg of total protein per sample) and trace amount of ^125I-LTT-sst-28 were incubated in 10 mM Hepes, 1 mM EDTA, 5 mM MgCl2, 5 mg/ml of BSA and 30 μg/ml bacitracin, pH 7.6 with six concentrations of the compounds. Each concentration was run in duplicate. Nonspecific binding was defined by 1 μM somatostatin-14 (sst-14) and corresponded to 5-25% of total binding. After 60 min at room temperature, incubations were terminated by rapid vacuum filtration through GF/B glass fiber filter mats (presoaked at 4° C. in 200 ml of 10 mM Hepes, 1 mM EDTA, 5 mM MgCl2, pH 7.6) and three 5 ml washes with ice-cold wash buffer (20 mM TRIS, 1 mM EDTA, 5 mM MgCl2, pH 7.4). The filters were then dried, impregnated with scintillate and their radioactivity was measured by scintillation counting. The analysis of the experiments was carried out by nonlinear least square curve fitting. Affinity constants (Ki) were calculated from the IC50 values according to the Cheng-Prusoff's equation (Cheng and Prusoff, 1973). Experiments were repeated a minimum of three times.

[2] = target: T2, human somatostatin receptor subtype SSTR2 (Homo sapiens, UniProt P30874); assay: Competition binding with 125I-LTT-sst-28, CHO cell membranes, SSTR2; details: membranes of CHO cells stably transfected with human SSTR2, Ki from IC50 by Cheng-Prusoff
T2 construct: expressed in transfected cells; host or cells: Chinese hamster ovary (CHO) cells, membranes
T2 sequence (P30874 whole entry): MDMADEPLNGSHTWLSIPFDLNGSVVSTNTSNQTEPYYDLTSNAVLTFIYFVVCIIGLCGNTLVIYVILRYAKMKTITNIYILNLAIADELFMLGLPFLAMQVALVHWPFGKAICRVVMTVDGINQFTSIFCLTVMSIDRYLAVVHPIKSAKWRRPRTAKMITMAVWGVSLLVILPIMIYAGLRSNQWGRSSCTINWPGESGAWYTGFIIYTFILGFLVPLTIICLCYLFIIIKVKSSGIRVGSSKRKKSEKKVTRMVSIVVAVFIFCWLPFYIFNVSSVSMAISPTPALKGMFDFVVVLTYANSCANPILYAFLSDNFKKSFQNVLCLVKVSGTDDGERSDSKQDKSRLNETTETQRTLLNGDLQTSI
Experimental: as §1

[3] = target: T3, human somatostatin receptor subtype SSTR3 (Homo sapiens, UniProt P32745); assay: Competition binding with 125I-LTT-sst-28, CHO cell membranes, SSTR3; details: membranes of CHO cells stably transfected with human SSTR3, Ki from IC50 by Cheng-Prusoff
T3 construct: expressed in transfected cells; host or cells: Chinese hamster ovary (CHO) cells, membranes
T3 sequence (P32745 whole entry): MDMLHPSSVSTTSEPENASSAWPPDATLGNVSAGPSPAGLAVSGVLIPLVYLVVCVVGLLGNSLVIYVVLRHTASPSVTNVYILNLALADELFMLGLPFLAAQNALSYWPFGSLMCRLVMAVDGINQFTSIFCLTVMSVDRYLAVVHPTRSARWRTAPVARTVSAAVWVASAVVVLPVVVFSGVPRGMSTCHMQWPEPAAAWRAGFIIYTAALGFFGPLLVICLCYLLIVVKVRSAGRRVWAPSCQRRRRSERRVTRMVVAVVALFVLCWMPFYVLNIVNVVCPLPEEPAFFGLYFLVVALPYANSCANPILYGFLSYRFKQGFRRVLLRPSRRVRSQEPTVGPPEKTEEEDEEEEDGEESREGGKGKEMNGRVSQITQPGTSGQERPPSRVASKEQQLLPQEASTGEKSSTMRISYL
Experimental: as §1

[4] = target: T4, human somatostatin receptor subtype SSTR4 (Homo sapiens, UniProt P31391); assay: Competition binding with 125I-LTT-sst-28, CHO cell membranes, SSTR4; details: membranes of CHO cells stably transfected with human SSTR4, Ki from IC50 by Cheng-Prusoff
T4 construct: expressed in transfected cells; host or cells: Chinese hamster ovary (CHO) cells, membranes
T4 sequence (P31391 whole entry): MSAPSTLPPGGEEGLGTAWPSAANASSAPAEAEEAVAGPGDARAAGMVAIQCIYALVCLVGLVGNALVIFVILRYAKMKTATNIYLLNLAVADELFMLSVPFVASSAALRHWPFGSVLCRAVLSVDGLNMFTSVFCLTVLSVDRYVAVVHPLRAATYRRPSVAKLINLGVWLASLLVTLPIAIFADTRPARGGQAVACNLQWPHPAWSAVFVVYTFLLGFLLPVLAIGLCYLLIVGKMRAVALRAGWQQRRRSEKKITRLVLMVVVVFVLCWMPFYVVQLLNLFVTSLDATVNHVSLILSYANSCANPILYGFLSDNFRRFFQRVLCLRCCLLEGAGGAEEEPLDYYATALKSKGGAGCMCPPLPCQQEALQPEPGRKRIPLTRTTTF
Experimental: as §1

[5] = target: T5, human somatostatin receptor subtype SSTR5 (Homo sapiens, UniProt P35346); assay: Competition binding with 125I-LTT-sst-28, CHO cell membranes, SSTR5; details: membranes of CHO cells stably transfected with human SSTR5, Ki from IC50 by Cheng-Prusoff
T5 construct: expressed in transfected cells; host or cells: Chinese hamster ovary (CHO) cells, membranes
T5 sequence (P35346 whole entry): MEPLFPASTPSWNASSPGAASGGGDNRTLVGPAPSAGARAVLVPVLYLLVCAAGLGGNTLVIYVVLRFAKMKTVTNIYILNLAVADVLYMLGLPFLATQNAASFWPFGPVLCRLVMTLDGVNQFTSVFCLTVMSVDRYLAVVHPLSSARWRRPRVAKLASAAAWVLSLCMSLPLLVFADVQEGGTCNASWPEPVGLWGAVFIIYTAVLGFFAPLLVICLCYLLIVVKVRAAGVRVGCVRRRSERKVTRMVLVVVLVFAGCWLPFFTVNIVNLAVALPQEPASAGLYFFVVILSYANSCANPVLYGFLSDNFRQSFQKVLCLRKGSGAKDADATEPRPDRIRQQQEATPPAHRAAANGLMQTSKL
Experimental: as §1

[6] = tested on: NPFF receptor; details: rat tissue; cited from earlier work

## Cc1ccc(S(=O)(=O)N[C@@H](CCN)C(=O)N[C@H](C(N)=O)C(c2ccccc2)c2ccccc2)c2ccccc12 [compound 7, 4-amino-N-((S)-1-carbamoyl-2,2-diphenylethyl)-(S)-2-(N′-(4-methyl-1-naphthalenesulfonyl)amino)butanamide]
[1]
  Ki: > 1000 nM
[2]
  Ki: > 10000 nM
[3]
  Ki: > 5000 nM
[4]
  Ki: 5.3 ± 2.1 nM
[5]
  Ki: > 10000 nM

## Cc1ccc(S(=O)(=O)N[C@@H](CCCNC(=N)N)C(=O)N[C@@H](Cc2ccccc2)C(N)=O)c2ccccc12 [compound 1, N-((S)-1-carbamoyl-2-phenylethyl)-5-guanidino-(S)-2-(N′-(4-methyl-1-naphthalenesulfonyl)amino)pentanamide]
[1]
  Ki: 73 ± 19 nM
[2]
  Ki: > 10000 nM
[3]
  Ki: > 10000 nM
[4]
  Ki: 3.6 ± 0.7 nM
[5]
  Ki: > 10000 nM

## Cc1ccc(S(=O)(=O)N[C@@H](CCCNC(=N)N)C(=O)N[C@H](C(N)=O)C(c2ccccc2)c2ccccc2)c2ccccc12 [compound 2, N-((S)-1-carbamoyl-2,2-diphenylethyl)-5-guanidino-(S)-2-(N′-(4-methyl-1-naphthalenesulfonyl)amino)pentanamide]
[1]
  Ki: 34 ± 14 nM
[2]
  Ki: > 10000 nM
[3]
  Ki: > 5000 nM
[4]
  Ki: 1.5 ± 0.7 nM
[5]
  Ki: > 5000 nM

## CCc1ccc(S(=O)(=O)N[C@@H](CCN)C(=O)N[C@@H](Cc2ccccc2)C(N)=O)c2ccccc12 [compound 6, 4-amino-N-((S)-1-carbamoyl-2-phenylethyl)-(S)-2-(N′-(4-ethyl-1-naphthalenesulfonyl)amino)butanamide]
[1]
  Ki: 990 ± 80 nM
[2]
  Ki: > 10000 nM
[4]
  Ki: 2.3 ± 0.4 nM

## Cc1ccc(S(=O)(=O)N[C@@H](CCCN)C(=O)N[C@@H](Cc2ccccc2)C(N)=O)c2ccccc12 [compound 3, 5-amino-N-((S)-1-carbamoyl-2-phenylethyl)-(S)-2-(N′-(4-methyl-1-naphthalenesulfonyl)amino)pentanamide]
[1]
  Ki: 260 ± 20 nM
[2]
  Ki: > 1000 nM
[3]
  Ki: > 1000 nM
[4]
  Ki: 6.5 ± 1.7 nM
[5]
  Ki: > 1000 nM

## CN(C)c1cccc2c(S(=O)(=O)N[C@@H](CCCN=C(N)N)C(=O)N[C@@H](Cc3ccccc3)C(N)=O)cccc12 [Dansyl-RFamide]
[6]
  affinity for NPFF receptor: 73 nM

## Cc1ccc(S(=O)(=O)N[C@@H](CCN)C(=O)N[C@@H](Cc2ccccc2)C(N)=O)c2ccccc12 [compound 5, 4-amino-N-((S)-1-carbamoyl-2-phenylethyl)-(S)-2-(N′-(4-methyl-1-naphthalenesulfonyl)amino)butanamide]
[1]
  Ki: 500 ± 150 nM
[2]
  Ki: > 1000 nM
[5]
  Ki: 540 ± 80 nM
